According to patent publication US10344061B2, “Peptide exhibiting hair growth promoting activity and/or melanin production promoting activity and use thereof” (CAREGEN CO., LTD., priority 2016, dated 2019):
Ends that are not written are not given here.

Legend:
Format in all cases: cell-based
Bcl-2 = Bcl-2 western blotting; conditions: human hair follicle dermal papilla cells, 24 hours, FIGS. 4a, 4b
Method: (§1) Human hair follicle dermal papilla cells were seeded at a density of 4×10^5 cells/well on 6-well plate, followed by incubation overnight. After changing into serum-free medium, the cells were treated with the peptides, followed by incubation for 24 hours, and then the wells were harvested to prepare cell lysate. Western blotting was performed using Bcl-2 and Bax antibodies (Santa Cruz Biotechnology, USA) to compare protein expression patterns.

Bax = Bax western blotting; conditions: human hair follicle dermal papilla cells, 24 hours, FIGS. 4a, 4b
Method: as §1

[1] = tested on: Human hair follicle dermal papilla cells; assay: DPC proliferation assay (MTT); conditions: serum-free medium, 3 days incubation, absorbance 550 nm, FIGS. 1a, 1b
Method: Human hair follicle dermal papilla cells were seeded at a density of 2×10^3 cells/well on 96-well plates, followed by incubation overnight. After changing into serum-free medium, the cells were treated with the peptides, followed by incubation for 3 days, and then the wells were treated with 4 mg/ml MTT solution, followed by reaction for 4 hours. The resulting formazan was solubilized with DNSO, and then the absorbance was measured at 550 nm using a microplate reader.

GSK3β = assay: β-Catenin activity test: GSK3β phosphorylation; conditions: human hair follicle dermal papilla cells, 15 and 30 minutes, western blotting; FIGS. 2a, 2b
ERK = assay: p-ERK western blotting; conditions: human hair follicle dermal papilla cells, 15 and 30 minutes, FIGS. 3a, 3b
Method: (§2) Human hair follicle dermal papilla cells were seeded at a density of 4×10^5 cells/well on 6-well plates, followed by incubation overnight. After changing into serum-free medium, the cells were treated with the peptides, followed by incubation for 15 and 30 minutes, and then the wells were harvested to prepare the cell lysate. Western blotting was performed using PI3K antibodies (Santa Cruz Biotechnology, USA) and phospho-ERK antibody (Cell Signaling Technology, USA) to compare protein expression patterns.

β-catenin = assay: β-Catenin activity test (western blotting); conditions: human hair follicle dermal papilla cells, 15 and 30 minutes, nuclear and cytoplasmic proteins, FIGS. 2a, 2b
Method: Human hair follicle dermal papilla cells were seeded at a density of 4×10^5 cells/well on 6-well plates, followed by incubation overnight. After changing into serum-free medium, the cells were treated with the peptides, followed by incubation for 15 and 30 minutes, and then the wells were harvested to isolate nuclear and cytoplasmic proteins. Western blotting was performed using β-catenin (Santa Cruz Biotechnology, USA) to compare β-catenin expression patterns.

PI3K = PI3K western blotting; conditions: human hair follicle dermal papilla cells, 15 and 30 minutes, FIGS. 3a, 3b
Method: as §2

keratin-14 = assay: Keratin-14 RT-PCR; conditions: human hair follicle dermal papilla cells, 24 hours, FIGS. 5a, 5b
Method: (§3) Human hair follicle dermal papilla cells were seeded at a density of 5×10^5 cells/well on 6-well plates, followed by incubation overnight. After changing into serum-free medium, the cells were treated with the peptides, followed by incubation for 24 hours, and then the wells were harvested to isolate RNA. After RNA quantification, cDNA synthesis was conducted using the cDNA synthesis kit (Intron, Korea), followed by PCR using PCR premix (Intron, Korea) and keratin-14 primers, and then electrophoresis was performed on 5% agarose gel to compare the mRNA expression level of the growth factor in respective sample treatment conditions.

[2] = tested on: melanocytes (B16F10 cell line); assay: Melanin measurement assay; conditions: 72 hours, intracellular melanin, absorbance 490 nm, FIGS. 9a, 9b
Method: After melanocytes (B16F10 cell line) in 6-well plates were cultured in an incubator at 37° C. for 24 hours, the medium of each plate was removed and exchanged with a fresh medium, followed by treatment with the present peptide with different concentrations. After the incubation for 72 hours, the culture medium was removed, and the cells were taken off and then transferred into 1.5-ml tubes, followed by centrifugation at 13,000 rpm for 3 minutes. The supernatant was removed, and cell pellets were collected to observe melanin. Then, 150 μl of 2 M NaOH was added to the cell pellets to lyse intracellular melanin at 60° C. for 30 minutes. Then, 100 μl of the supernatant obtained from the lysis was added into each well of 96-well plates, and the absorbance was measured at 490 nm.

MITF [3] = assay: Melanogenesis-related gene RT-PCR: MITF; conditions: B16F10 cell line, 72 hours, FIG. 10
Method: (§4) Melanocytes (B16F10 cell line) were incubated on 6-well culture plates for 24 hours, and were treated with the peptides of the present invention with different concentrations. After RNA was extracted from the cells incubated for 72 hours, cDNA was prepared. PCR was performed by using respective primers specific to MITF and tyrosinase, which are involved in melanogenesis, and the expression changes of the respective genes were observed.

tyrosinase [4] = assay: Melanogenesis-related protein western blotting: tyrosinase; conditions: B16F10 cell line, 72-hour incubation, FIG. 11
Method: (§5) Melanocytes (B16F10 cell line) were incubated on 6-well culture plates for 24 hours, and were treated with the peptides of the present invention with different concentrations. After 72-hour incubation, the cells were lysed, and the cells were subjected to western blotting using specific antibodies (two types, both from Santa Cruz Biotechnology, USA) to investigate the expression of MITF and tyrosinase, which are factors involved in melanogenesis.

TGF-β1 = TGF-β1 RT-PCR; conditions: human hair follicle dermal papilla cells, 24 hours, RT-PCR (mRNA); FIG. 7
Method: as §3, with “4×10^5” for “5×10^5”, “plate,” for “plates,”, “TGF-β1” for “keratin-14”, “in” for “in respective”

VEGF = VEGF RT-PCR; conditions: human hair follicle dermal papilla cells, 24 hours, RT-PCR (mRNA); FIG. 6
Method: as §3, with “4×10^5” for “5×10^5”, “plate,” for “plates,”, “respective KGF and VEGF” for “keratin-14”, “levels” for “level”, “factors” for “factor”, “in” for “in respective”

MSX2 = MSX2 RT-PCR; conditions: human hair follicle dermal papilla cells, 24 hours, RT-PCR (mRNA); FIG. 8
Method: as §3, with “4×10^5” for “5×10^5”, “plate,” for “plates,”, “MSX2” for “keratin-14”, “in” for “in respective”

KGF = KGF RT-PCR; conditions: human hair follicle dermal papilla cells, 24 hours, RT-PCR (mRNA); FIG. 6
Method: as §3, with “4×10^5” for “5×10^5”, “plate,” for “plates,”, “respective KGF and VEGF” for “keratin-14”, “levels” for “level”, “factors” for “factor”, “in” for “in respective”

MITF [5] = assay: Melanogenesis-related protein western blotting: MITF; conditions: B16F10 cell line, 72-hour incubation, FIG. 11
Method: as §5

TRP1 = assay: Melanogenesis-related gene RT-PCR: TRP1; conditions: B16F10 cell line, 72 hours, FIG. 10 legend
tyrosinase [6] = assay: Melanogenesis-related gene RT-PCR: tyrosinase; conditions: B16F10 cell line, 72 hours, FIG. 10
Method: as §4

Sequence | expression of the anti-apoptotic protein Bcl-2 (Bcl-2) | expression of the apoptosis-related protein Bax (Bax) | growth of human hair follicle dermal papilla cells [1] | phosphorylation level of GSK3β (GSK3β) | phosphorylation of ERK (ERK) | activity of β-catenin (β-catenin) | expression of PI3K (PI3K) | mRNA expression of keratin-14 (keratin-14) | melanogenesis in melanocytes [2] | mRNA expression of MITF transcriptional factor (MITF [3]) | protein expression of tyrosinase enzyme (tyrosinase [4]) | expression of TGF-β1 (TGF-β1) | expression of VEGF (VEGF) | expression of MSX2 (MSX2) | expression of KGF (KGF) | protein expression of MITF transcription factor (MITF [5]) | mRNA expression of TRP1 (TRP1) | mRNA expression of tyrosinase enzyme (tyrosinase [6])
KYLLVHRPYYRR [SEQ ID NO: 2] | increased | decreased | stimulated in a dose-dependent manner | increased | increased | increased | increased | increased | increased |  |  |  |  |  |  |  |  | 
ACTSSQLRSC (cysteine pairing not given here) [SEQ ID NO: 1] | increased | decreased | stimulated in a dose-dependent manner | increased | increased | increased | increased | increased | increased | increased | increased | increased | increased | increased | increased | increased | increases | increased
